Assay results published in patent publication US9458102B2 (priority 2011, dated 2016).

Key:
rd1 mouse = rd1 mouse model of retinal degeneration, subretinal injection; format: in vivo; settings: subretinal injection at P12, estimated final concentration 5 μM, harvested at P17
Method: FIG. 9 is a set of four images of retinal sections from an untreated rd1 mouse euthanized at P17 (upper panels) and an rd1 mouse receiving a subretinal injection of 30 μM compound 8 (final concentration ^˜5 μM) at P12 and euthanized at P17 (lower panels). The photographs show standard histological analysis of retinal sections stained with cresol purple. The right panels are expansions of similar regions in each retina near the optic nerve. The white brackets mark the outer nuclear layer containing photoreceptor nuclei.
(§1) The rd1 mouse is a newer designation for the classic rd mouse, which harbors a nonsense mutation in the PDE6B gene. […] The rd phenotype has been studied for many years, and allows for more rapid assessment of protection strategies. However, the onset of rod photoreceptor death overlaps with the later stages of development and synaptogenesis, making it difficult to distinguish between the primary effects of rod degeneration and the consequences of abnormal neural development. The rd10 phenotype is more reminiscent of typical human RP.
FIG. 9 is a comparison of two rd1 eyes, one untreated (upper panel) and one receiving a subretinal injection of compound 8 to an estimated final concentration of 5 μM at P12. […] Indeed, the entire retina was healthier in appearance in the treated eye.

rd10 mouse = rd10 mouse model of retinal degeneration, intravitreal injection; format: in vivo; settings: intravitreal injection at P15, final concentration ~0.5 mM, euthanized at P25; PBS in the other eye
Method: FIG. 8 is a set of two images of retinal sections from the left eye (left panel) and right eye (right panel) of an rd10 mouse, intravitreally injected with PBS and 5 mM compound 9 (final concentration ^˜0.5 mM), respectively, at P15 and euthanized at P25. Retinas were sectioned at 20 microns, and stained with DAPI. Images are confocal stacks taken very close to the optic nerve. The outer nuclear layers corresponding to photoreceptor cells are shown with white brackets.
as §1
(§2) In separate experiments on adult wild-type mice, the ERG a and b waves were blocked during a similar 10-day treatment, as expected for a concentration in excess of that required to completely block CNG channels. In the rd10 mouse some degeneration was probably underway before the treatment began.

adult wild-type mice = assay: ERG in adult wild-type mice during 10-day treatment; format: in vivo, mouse; settings: similar 10-day treatment
Text: as §2

Row | Structure (SMILES) | rescuing effect on retina (rd1 mouse) | outer nuclear layer thickness (rd1 mouse; untreated eye one cell thick) | neuroprotection of the photoreceptor layer (rd10 mouse) | ERG a and b waves (adult wild-type mice)
1 | CCCCNc1ccc(C(=S)NCCN(C)C)cc1 [Compound 8, 4-(Butylamino)-N-(2-(dimethylamino)ethyl)benzothioamide] | very noticeable rescuing effect | about three cells thick | – | –
2 | CCCCCCCCNc1ccc(C(=S)NCCN(C)C)cc1 [Compound 9, 4-(Octylamino)-N-(2-(dimethylamino)ethyl)benzothioamide] | – | – | striking neuroprotection of the photoreceptor layer | blocked
